Reference: patent publication US20130078268A1, “VACCINE COMPOSITIONS AND METHODS OF USE THEREOF” (priority 2010, published 2013)
Where no end group is shown, it is not given here. [ ]: non-standard residue; d: D form. pGlu = O=C1CC[C@@H](C(=O)O)N1

Test system: peptide of SEQ ID NO: 1
Assay: Titer of antibody to the peptide of SEQ ID NO: 1 by peptide-based ELISA in serum of immunised mice
Format: in vivo
Settings: male C57B1 mice; three subcutaneous injections of 100 μg peptide + 100 μg calcium phosphate nanoparticles at 3-week intervals; two weeks after the last injection
Description: Four male mice (8-week-old, C57B1) were given, three subcutaneous injections of vaccine composition comprising 100 μg of the peptide SEQ ID NO: 1 and 100 μg of calcium phosphate nanoparticles at 3-week intervals. As controls, an additional four mice received the vehicle. Two weeks after the last injection, the titer of antibody to the peptide of SEQ ID NO: 1 was assessed by the peptide-based enzyme-linked immunosorbent assay (ELISA). Samples were run in triplicate on ELISA plates coated with the peptide of the SEQ ID NO: 1, which was used as the immunogen. The peptide was bound in solid phase on high binding 96 well plates. Serum was diluted 1:500 and then serially diluted to a final dilution of 1:64,000. Detection of the antibody was obtained using an HRP conjugated secondary antibody (1:5,000) and TMB micro well peroxidase substrate.
Four male mice (8-week-old, C57B1) were given three intraperitoneal injections of vaccine composition of example 3 at 3-week intervals. As controls, an additional four mice received the vehicle. Two weeks after the last injection, the titer of antibody to the peptide of SEQ ID NO: 1 was assessed by the peptide-based enzyme-linked immunosorbent assay (ELISA) as described in the example 4. […] Thus, the administering vaccine compositions of the invention elicited protective immunity in animals against endogenous peptide of SEQ ID NO: 1.

## pGlu-Pro-Pro-Gly-Gly-Ser-Lys-Val-Ile-Leu-Phe ([pGlu]PPGGSKVILF; listed as Homo sapiens) [peptide SEQ ID NO: 1]
  geometric mean titer of anti-SEQ ID NO: 1 antibodies in serum: about 70,000
